# Measurements from publication PMC7305236, “The atypical chemokine receptor ACKR3/CXCR7 is a broad-spectrum scavenger for opioid peptides” (Nature Communications, 2020).
# Like-named read-outs stand apart in the source and are kept apart here.
# Experiments:
# CXCR4 = target: T1, CXCR4 (Homo sapiens, UniProt P61073); format: cell-based
# T1 construct: expressed in transfected cells; host or cells: U87, transient cotransfection of pNBe vectors
# CCR1 = target: T2, CCR1 (Homo sapiens, UniProt P32246); assay: Figure S2a opioid peptide screen on chemokine receptors; format: cell-based; parameters: dose or concentration left out as unconfirmed; conditions: replicate 1, read-out: CCR1 activity, ctrl+ = 100
# T2 construct: expressed in transfected cells
# T2 sequence (P32246 1-355): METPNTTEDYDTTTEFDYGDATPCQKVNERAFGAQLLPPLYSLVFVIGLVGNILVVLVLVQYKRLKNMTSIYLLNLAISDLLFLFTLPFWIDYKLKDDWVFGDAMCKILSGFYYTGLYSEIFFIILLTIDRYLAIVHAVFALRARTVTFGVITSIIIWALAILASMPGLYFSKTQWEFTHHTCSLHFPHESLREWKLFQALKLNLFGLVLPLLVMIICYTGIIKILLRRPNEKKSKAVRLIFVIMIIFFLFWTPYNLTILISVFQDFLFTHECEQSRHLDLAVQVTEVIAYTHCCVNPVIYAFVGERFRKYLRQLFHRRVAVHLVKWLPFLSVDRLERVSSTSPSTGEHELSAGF
# ACKR3 [1] = target: T3, ACKR3 (Homo sapiens, UniProt P25106); assay: cell-based; parameters: dose or concentration left out as unconfirmed; conditions: read-out: ACKR3 activity, ctrl+ = 100, Figure S2a; replicate 2
# ACKR2 = target: T4, ACKR2 (Homo sapiens, UniProt O00590); assay: Figure S2a opioid peptide screen on chemokine receptors; format: cell-based; parameters: dose or concentration left out as unconfirmed; conditions: replicate 2, read-out: ACKR2 activity, ctrl+ = 100
# T4 construct: expressed in transfected cells; host or cells: U87 cells (human glioblastoma)
# T4 sequence (O00590 1-384): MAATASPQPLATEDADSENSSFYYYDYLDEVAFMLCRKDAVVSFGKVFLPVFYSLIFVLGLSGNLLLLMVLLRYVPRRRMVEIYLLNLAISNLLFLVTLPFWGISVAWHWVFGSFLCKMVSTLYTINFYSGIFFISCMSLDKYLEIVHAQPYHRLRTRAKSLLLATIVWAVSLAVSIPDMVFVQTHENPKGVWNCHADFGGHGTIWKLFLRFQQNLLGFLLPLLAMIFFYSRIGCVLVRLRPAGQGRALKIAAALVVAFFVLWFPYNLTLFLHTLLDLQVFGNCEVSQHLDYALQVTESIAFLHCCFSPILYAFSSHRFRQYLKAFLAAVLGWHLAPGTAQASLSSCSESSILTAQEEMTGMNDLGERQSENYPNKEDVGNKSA
# CCR6 = target: T5, CCR6 (Homo sapiens, UniProt P51684); assay: as above; format: cell-based; parameters: dose or concentration left out as unconfirmed; conditions: replicate 1, read-out: CCR6 activity, ctrl+ = 100
# T5 construct: expressed in transfected cells
# T5 sequence (P51684 1-374): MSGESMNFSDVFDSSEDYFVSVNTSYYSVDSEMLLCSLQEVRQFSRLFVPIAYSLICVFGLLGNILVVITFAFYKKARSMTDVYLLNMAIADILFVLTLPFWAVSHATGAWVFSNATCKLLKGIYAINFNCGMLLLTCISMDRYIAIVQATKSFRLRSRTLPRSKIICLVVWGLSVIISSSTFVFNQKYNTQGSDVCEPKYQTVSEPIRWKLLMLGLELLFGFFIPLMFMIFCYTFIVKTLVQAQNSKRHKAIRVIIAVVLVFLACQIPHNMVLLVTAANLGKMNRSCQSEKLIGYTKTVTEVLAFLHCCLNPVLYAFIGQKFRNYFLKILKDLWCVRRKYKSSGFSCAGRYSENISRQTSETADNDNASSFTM
# CXCR3A = target: T6, CXCR3A (Homo sapiens, UniProt P49682); assay: as above; format: cell-based; parameters: dose or concentration left out as unconfirmed; conditions: replicate 1, read-out: CXCR3A activity, ctrl+ = 100
# T6 construct: expressed in transfected cells; host or cells: U87 cells
# T6 sequence (P49682 1-368): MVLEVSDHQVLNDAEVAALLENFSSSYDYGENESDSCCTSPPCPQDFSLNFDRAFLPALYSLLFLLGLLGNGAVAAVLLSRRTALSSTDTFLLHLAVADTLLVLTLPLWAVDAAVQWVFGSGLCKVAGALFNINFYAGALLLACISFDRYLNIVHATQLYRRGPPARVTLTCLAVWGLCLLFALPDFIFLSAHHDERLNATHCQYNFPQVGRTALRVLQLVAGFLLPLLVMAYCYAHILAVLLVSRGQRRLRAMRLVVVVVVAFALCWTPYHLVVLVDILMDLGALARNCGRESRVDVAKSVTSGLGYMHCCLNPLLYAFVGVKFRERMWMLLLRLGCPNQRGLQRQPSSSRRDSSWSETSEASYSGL
# CCR3 = target: T7, CCR3 (Homo sapiens, UniProt P51677); assay: as above; parameters: dose or concentration left out as unconfirmed; conditions: read-out: CCR3 activity, ctrl+ = 100, Figure S2a
# T7 sequence (P51677 1-355): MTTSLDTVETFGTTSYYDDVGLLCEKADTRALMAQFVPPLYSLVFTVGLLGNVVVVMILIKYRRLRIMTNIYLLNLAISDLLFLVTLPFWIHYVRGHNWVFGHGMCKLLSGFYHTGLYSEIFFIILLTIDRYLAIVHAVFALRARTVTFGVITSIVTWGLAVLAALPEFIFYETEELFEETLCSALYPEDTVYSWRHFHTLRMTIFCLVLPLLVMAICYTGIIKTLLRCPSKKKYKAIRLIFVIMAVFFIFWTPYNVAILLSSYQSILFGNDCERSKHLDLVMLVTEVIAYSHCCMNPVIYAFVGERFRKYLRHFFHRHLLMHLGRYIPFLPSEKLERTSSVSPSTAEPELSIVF
# ACKR3 [2] = target: T3, ACKR3; format: cell-based; parameters: expressed in transfected cells; conditions: 100 nM
# NOP = NOP (Homo sapiens, UniProt P41146); assay: Activity of ligands towards NOP (source data Fig 4a, 4c); format: cell-based; conditions: 100 nM
# KOR [3] = target: T8, KOR (Homo sapiens, UniProt P41145); format: cell-based; parameters: expressed in transfected cells; host or cells: U87 (human glioblastoma), transient co-transfection; conditions: 100 nM
# DOR = target: T9, DOR (Homo sapiens, UniProt P41143); format: cell-based; conditions: 100 nM
# T9 construct: expressed in transfected cells; host or cells: U87 (human glioblastoma)
# ACKR = target: T10, ACKR (Homo sapiens, UniProt P25106); assay: Figure 6h, ACKR, DMSO vs Bafilomycin treatment; format: cell-based; conditions: n = 3 or 4 as in cell
# T10 construct: expressed in transfected cells; host or cells: U87 cells (human glioblastoma)
# KOR [4] = target: T8, KOR; assay: Figure 6h, KOR, DMSO vs Bafilomycin treatment; format: cell-based; parameters: expressed in transfected cells; host or cells: U87 (human glioblastoma); conditions: n = 3 or 4 as in cell
# U87 ACKR3 = target: T11, U87 ACKR3 (Homo sapiens, UniProt P25106); assay: Figure 6c source data, U87 ACKR3; format: cell-based; conditions: Figure 6c inset, U87 ACKR3 + labelled peptide, titrated agonist not given
# T11 construct: expressed in transfected cells
# CXCR7 = target: T12, CXCR7 (Homo sapiens, UniProt P25106); assay: Figure S1a: screen of opioid peptides on CXCR7; format: cell-based
# T12 construct: expressed in transfected cells; host or cells: U87 cells
# [5] = 'DMSO vs Bafilomycin treatment'
# [6] = first of two columns under 'DMSO vs Bafilomycin treatment' (presumably DMSO)
# T9 sequence (P41143 whole entry): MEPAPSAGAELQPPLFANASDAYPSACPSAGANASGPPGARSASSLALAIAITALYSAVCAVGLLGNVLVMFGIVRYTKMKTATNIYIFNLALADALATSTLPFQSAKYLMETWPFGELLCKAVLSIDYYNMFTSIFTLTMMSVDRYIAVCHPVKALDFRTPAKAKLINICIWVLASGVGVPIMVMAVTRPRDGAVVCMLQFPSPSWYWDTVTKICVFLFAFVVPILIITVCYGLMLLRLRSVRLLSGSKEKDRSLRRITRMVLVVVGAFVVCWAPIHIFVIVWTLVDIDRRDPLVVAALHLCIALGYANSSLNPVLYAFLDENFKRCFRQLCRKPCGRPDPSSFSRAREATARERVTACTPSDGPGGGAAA
# T8 sequence (P41145 whole entry): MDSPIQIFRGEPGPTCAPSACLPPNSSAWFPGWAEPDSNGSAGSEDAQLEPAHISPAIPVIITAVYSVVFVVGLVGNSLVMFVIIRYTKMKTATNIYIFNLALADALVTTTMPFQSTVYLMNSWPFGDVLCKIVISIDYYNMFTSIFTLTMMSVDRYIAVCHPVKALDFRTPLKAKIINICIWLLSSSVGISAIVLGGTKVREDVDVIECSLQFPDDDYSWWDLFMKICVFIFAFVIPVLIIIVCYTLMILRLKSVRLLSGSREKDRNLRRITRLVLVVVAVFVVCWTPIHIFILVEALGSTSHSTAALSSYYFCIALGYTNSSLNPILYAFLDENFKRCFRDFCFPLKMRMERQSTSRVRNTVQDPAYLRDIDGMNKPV
# T1 sequence (P61073 whole entry): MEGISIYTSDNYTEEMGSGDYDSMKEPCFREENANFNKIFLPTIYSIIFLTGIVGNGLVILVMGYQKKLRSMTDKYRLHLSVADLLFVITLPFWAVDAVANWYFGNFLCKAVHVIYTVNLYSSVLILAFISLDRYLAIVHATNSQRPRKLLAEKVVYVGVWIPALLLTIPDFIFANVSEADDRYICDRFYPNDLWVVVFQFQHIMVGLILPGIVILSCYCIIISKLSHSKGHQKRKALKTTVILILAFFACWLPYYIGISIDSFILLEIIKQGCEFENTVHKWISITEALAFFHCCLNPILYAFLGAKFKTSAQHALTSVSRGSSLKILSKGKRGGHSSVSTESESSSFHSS
# T3 sequence (P25106 whole entry): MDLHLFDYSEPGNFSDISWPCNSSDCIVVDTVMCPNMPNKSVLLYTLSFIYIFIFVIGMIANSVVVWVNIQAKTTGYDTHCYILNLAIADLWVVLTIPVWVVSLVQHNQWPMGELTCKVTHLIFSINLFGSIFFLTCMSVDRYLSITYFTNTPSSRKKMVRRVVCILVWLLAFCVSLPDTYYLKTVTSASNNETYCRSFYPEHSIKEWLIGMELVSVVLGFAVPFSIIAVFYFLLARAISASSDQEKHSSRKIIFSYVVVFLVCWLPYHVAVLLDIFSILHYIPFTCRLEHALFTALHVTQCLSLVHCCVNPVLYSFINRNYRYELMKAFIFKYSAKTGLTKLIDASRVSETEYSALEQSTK
# T11 sequence (P25106 whole entry): as above
# NOP, sequence (P41146 whole entry): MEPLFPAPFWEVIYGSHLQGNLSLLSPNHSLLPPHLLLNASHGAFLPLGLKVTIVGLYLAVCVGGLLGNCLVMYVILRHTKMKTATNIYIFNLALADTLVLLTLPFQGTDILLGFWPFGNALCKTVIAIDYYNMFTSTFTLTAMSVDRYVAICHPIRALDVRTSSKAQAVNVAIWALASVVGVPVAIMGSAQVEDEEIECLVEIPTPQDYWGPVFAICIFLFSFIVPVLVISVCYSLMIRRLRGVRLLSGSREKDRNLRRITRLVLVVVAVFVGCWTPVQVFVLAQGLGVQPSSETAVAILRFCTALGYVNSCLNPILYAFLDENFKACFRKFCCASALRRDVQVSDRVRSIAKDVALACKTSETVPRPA
# T12 sequence (P25106 whole entry): as the sequence (P25106 whole entry) above
# T10 sequence (P25106 whole entry): as above
compound,measurement,setting,value
c1cc(CN2CCCNCCNCCCNCC2)ccc1CN1CCCNCCNCCCNCC1 [AMD3100],"Figure S1a value, CXCR4",CXCR4; replicate 1,-2.401
same,"Figure S1a value, CXCR4",CXCR4; replicate 2,38.4908
CC[C@H](C)[C@H](NC(=O)[C@H](C)NC(=O)[C@H](CC(N)=O)NC(=O)[C@H](CCCCN)NC(=O)[C@H](Cc1ccccc1)NC(=O)[C@H](CC(C)C)NC(=O)[C@@H](NC(=O)[C@@H](NC(=O)[C@H](CC(C)C)NC(=O)[C@@H]1CCCN1C(=O)[C@@H](NC(=O)[C@H](CCC(N)=O)NC(=O)[C@H](CO)NC(=O)[C@H](CCCCN)NC(=O)[C@H](CCC(=O)O)NC(=O)[C@H](CO)NC(=O)[C@@H](NC(=O)[C@H](CCSC)NC(=O)[C@H](Cc1ccccc1)NC(=O)CNC(=O)CNC(=O)[C@@H](N)Cc1ccc(O)cc1)[C@@H](C)O)[C@@H](C)O)C(C)C)[C@@H](C)O)C(=O)N[C@H](C(=O)N[C@@H](CCCCN)C(=O)N[C@@H](CC(N)=O)C(=O)N[C@@H](C)C(=O)N[C@@H](Cc1ccc(O)cc1)C(=O)N[C@@H](CCCCN)C(=O)N[C@@H](CCCCN)C(=O)NCC(=O)N[C@@H](CCC(=O)O)C(=O)O)[C@@H](C)CC [-endorphin],activation,CCR1,6.2%
same,activation,ACKR3 [1],3.39%
same,activation,ACKR2,16.8%
same,activation,CCR6,1.21%
same,activation,CXCR3A,2.35%
same,activation,CCR3; replicate 1,5.63%
same,activation,CCR3; replicate 2,8.01%
C=CCN1CC[C@]23CCCC[C@H]2[C@H]1Cc1ccc(O)cc13 [Levallorphan],"ACKR3 activity, Fig 4a",ACKR3 [2]; replicate 1,29.7947
same,"ACKR3 activity, Fig 4a",ACKR3 [2]; replicate 2,-20.4867
same,"ACKR3 activity, Fig 4a",ACKR3 [2]; replicate 3,-0.5025
same,"NOP activity, Fig 4a",NOP; replicate 1,19.6254
same,"NOP activity, Fig 4a",NOP; replicate 2,-2.413
same,"NOP activity, Fig 4a",NOP; replicate 3,-13.909
same,"KOR activity, Fig 4a",KOR [3]; replicate 1,-79.0502
same,"KOR activity, Fig 4a",KOR [3]; replicate 2,-66.9071
same,"KOR activity, Fig 4a",KOR [3]; replicate 3,-81.2861
same,"DOR activity, Fig 4a",DOR; replicate 1,-48.6722
same,"DOR activity, Fig 4a",DOR; replicate 2,-49.4812
same,"DOR activity, Fig 4a",DOR; replicate 3,-45.6651
CSCC[C@H](NC(=O)[C@H](Cc1ccccc1)NC(=O)CNC(=O)CNC(=O)[C@@H](N)Cc1ccccc1)C(=O)N[C@@H](CCCNC(=N)N)C(=O)N[C@@H](CCCNC(=N)N)C(=O)N[C@@H](CCCCN)C(N)=O [LIH383],"Mean ± SEM (Figure 6h, ACKR)",ACKR; [5],"25,99 ± 1,65, n=3"
same,"Mean ± SEM (Figure 6h, ACKR)",ACKR; [6],"41,87 ± 2,846, n=3"
same,"Mean ± SEM (Figure 6h, KOR)",KOR [4]; [5],"102,6 ± 3,011, n=3"
same,"Mean ± SEM (Figure 6h, KOR)",KOR [4]; [6],"99,75 ± 4,761, n=3"
C=CCN1CC[C@]23c4c5ccc(O)c4O[C@H]2C(=O)CC[C@@]3(O)[C@H]1C5 [Naloxone],"ACKR3 activity, Fig 4a",ACKR3 [2]; replicate 1,-16.5596
same,"ACKR3 activity, Fig 4a",ACKR3 [2]; replicate 2,-16.7812
same,"ACKR3 activity, Fig 4a",ACKR3 [2]; replicate 3,-9.5257
H-MRRKFGGF-NH2 [LIH inverse],EC50,U87 ACKR3; replicate 1,64.8 nM
same,EC50,U87 ACKR3; replicate 2,119 nM
same,EC50,U87 ACKR3; replicate 3,112 nM
same,EC50,U87 ACKR3; replicate 4,71.7 nM
CXCL11,"Figure S1a value, CXCR7",CXCR7; replicate 1,84.3234
same,"Figure S1a value, CXCR7",CXCR7; replicate 2,115.296
same,"Figure S1a value, CXCR4",CXCR4; replicate 1,49.1082
same,"Figure S1a value, CXCR4",CXCR4; replicate 2,78.3882
Oc1ccc2c3c1O[C@H]1c4[nH]c5ccccc5c4C[C@@]4(O)[C@@H](C2)N(CC2CC2)CC[C@]314 [Naltrindole],"ACKR3 activity, Fig 4a",ACKR3 [2]; replicate 1,7.799
same,"ACKR3 activity, Fig 4a",ACKR3 [2]; replicate 2,7.647
same,"ACKR3 activity, Fig 4a",ACKR3 [2]; replicate 3,1.281
Oc1ccc2c3c1O[C@H]1c4[nH]c5c(c4C[C@@]4(O)[C@@H](C2)N(CC2CC2)CC[C@]314)C[C@@]1(O)[C@H]2Cc3ccc(O)c4c3[C@@]1(CCN2CC1CC1)[C@H]5O4 [nor-Binaltrophimine],"ACKR3 activity, Fig 4a",ACKR3 [2]; replicate 1,6.23
same,"ACKR3 activity, Fig 4a",ACKR3 [2]; replicate 2,7.454
same,"ACKR3 activity, Fig 4a",ACKR3 [2]; replicate 3,1.2819
same,"NOP activity, Fig 4a",NOP; replicate 1,13.2975
same,"NOP activity, Fig 4a",NOP; replicate 2,23.1448
same,"NOP activity, Fig 4a",NOP; replicate 3,-11.7109
Buprenorphine,"ACKR3 activity, Fig 4a",ACKR3 [2]; replicate 1,-5.792
same,"ACKR3 activity, Fig 4a",ACKR3 [2]; replicate 2,26.4917
same,"ACKR3 activity, Fig 4a",ACKR3 [2]; replicate 3,-14.8896
